Assay [1] concerns orchiectomized (ORX) immature male rat. Nature of the assay: Orchiectomized immature rat assay (levator ani and ventral prostate weights). The following applies: 4 days, TP 10 mg/kg = 100%, ORX control = 0%; for % TP Control LA: levator ani weight; for % TP Control VP: ventral prostate weight. The format is in vivo, Sprague Dawley rat. As for the experimental part: All animal studies were performed in accordance with the Guide for Care and Use of Laboratory Animals (National Research Council, 1996). Twenty-one day old male Sprague Dawley rats were acquired from Taconic, Inc, Germantown, N.Y. Rats were housed five per cage at standard vivarium conditions ([…], 12-h light/dark cycle), with normal chow diet and tap water ad libitum. At 25 days of age, the rats underwent bilateral orchiectomy surgery (ORX) after sedation with 3-5% Isoflurane. Following the surgery, the animals were treated immediately by daily subcutaneous (s.c.) injection with vehicle (sesame oil), testosterone propionate (TP, 10 mg/kg) and test compounds. The dosage of test compound administered is in mg/kg. At the end of the 4 days of administrations, the animals were sacrificed in a carbon dioxide chamber, the ventral prostate (VP) and levator ani muscle complex (LA) were removed and weighed. The increase in the weights of VP or LA by TP was expressed as 100%, and the ORX control as baseline, 0%; the response of the test compounds was calculated as the percentage increase compared to TP.

Assay [2] concerns the target T1, recombinant human androgen receptor (hAR) (Homo sapiens, UniProt P10275).
T1 construct: made in house; host or cells: baculovirus/Sf9 insect cells (crude extract)
T1 sequence (P10275 1-920): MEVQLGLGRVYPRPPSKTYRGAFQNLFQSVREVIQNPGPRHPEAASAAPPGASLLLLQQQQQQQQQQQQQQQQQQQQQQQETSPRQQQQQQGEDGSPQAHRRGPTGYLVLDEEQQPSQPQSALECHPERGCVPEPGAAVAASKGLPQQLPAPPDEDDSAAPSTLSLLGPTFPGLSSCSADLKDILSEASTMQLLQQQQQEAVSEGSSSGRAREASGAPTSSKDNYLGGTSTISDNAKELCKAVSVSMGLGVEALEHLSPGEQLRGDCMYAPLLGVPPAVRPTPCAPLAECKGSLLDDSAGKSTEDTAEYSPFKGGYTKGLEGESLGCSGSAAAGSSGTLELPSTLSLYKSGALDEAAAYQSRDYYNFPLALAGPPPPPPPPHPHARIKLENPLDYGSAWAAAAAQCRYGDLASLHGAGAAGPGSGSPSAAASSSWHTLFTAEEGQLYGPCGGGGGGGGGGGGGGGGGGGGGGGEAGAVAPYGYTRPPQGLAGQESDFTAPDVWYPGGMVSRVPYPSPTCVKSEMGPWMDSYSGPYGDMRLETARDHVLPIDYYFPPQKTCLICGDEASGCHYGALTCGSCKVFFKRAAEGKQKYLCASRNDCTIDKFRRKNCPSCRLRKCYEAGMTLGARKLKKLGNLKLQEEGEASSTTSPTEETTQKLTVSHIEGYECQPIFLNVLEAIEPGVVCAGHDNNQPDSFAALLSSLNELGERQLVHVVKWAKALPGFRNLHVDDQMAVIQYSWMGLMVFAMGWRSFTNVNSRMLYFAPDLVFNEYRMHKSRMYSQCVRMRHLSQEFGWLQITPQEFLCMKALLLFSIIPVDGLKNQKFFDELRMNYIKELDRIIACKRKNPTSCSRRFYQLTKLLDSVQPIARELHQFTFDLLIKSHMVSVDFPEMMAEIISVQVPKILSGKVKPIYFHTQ
Nature of the assay: Human androgen receptor binding analysis (3H-DHT competitive binding). As for the experimental part: The following is a brief description of the assay that determines the affinity of a compound for the recombinant human androgen receptor (hAR). Competitive binding analysis is performed on baculovirus/Sf9 generated hAR extracts in the presence or absence of differing concentrations of drug and a fixed concentration of ^3H-dihydrotestosterone (^3H-DHT) as tracer. This binding assay method is a modification of a protocol previously described (Chang, et. al. J. Steroid Biochem. 20(1):11-17 1984). Briefly, progressively decreasing concentrations of compounds are incubated in the presence of hAR extract (Chang et al. P.N.A.S. Vol. 89, pp. 5546-5950, 1992), hydroxylapatite and 1 nM ^3H-DHT for one hour at 4° C. Subsequently, the binding reactions are washed three times to completely remove excess unbound ^3H-DHT. hAR bound ^3H-DHT levels are determined in the presence of compounds (=competitive binding) and compared to levels bound when no competitor is present (=maximum binding). Compound binding affinity to the hAR is expressed as the concentration of compound at which one half of the maximum binding is inhibited (the IC50).

SMILES strings stand for the structures.

Consider `CC[C@@H](C)N(C)c1ccc(C#N)c(C(F)(F)F)c1` [Example 7, 4-((R)-sec-Butyl-methyl-amino)-2-trifluoromethyl-benzonitrile], for which the results for the “% TP Control LA” value in assay [1] (3 mg/kg s.c.), in assay [1] (10 mg/kg s.c.) and in assay [1] (30 mg/kg s.c.) were 40%, 65% and 89%, respectively. Moreover, the “% TP Control VP” value in assay [1] (3 mg/kg s.c.) stood at 23%; in assay [1] (10 mg/kg s.c.) it was 24%; in assay [1] (30 mg/kg s.c.), 39%. Further, the IC50 in assay [2] was 1.09 nM.
Consider `CCN(c1ccc(C#N)c(Cl)c1)C(C)C` [Example 48, 2-Chloro-4-(ethyl-isopropyl-amino)-benzonitrile], for which the IC50 in assay [2] was determined as 19.7 nM.
For the compound `CCCN(CCC)c1ccc(C#N)c(Cl)c1` [Example 49, 2-Chloro-4-(dipropyl-amino)-benzonitrile], the IC50 in assay [2] is 8.33 nM.
Same read-out and setting: then `CC(C)N(C)c1ccc(C#N)c(C#N)c1` [Example 50, 4-(Isopropyl-methyl-amino)-phthalonitrile], with 8.23 nM; and `COC[C@H]1CCCN1c1ccc(C#N)c(C#N)c1` [Example 51, 4-(2-(R)-Methoxymethyl-pyrrolidin-1-yl)-phthalonitrile], with 12.4 nM.
On the same count and under the same terms, in the case of `N#Cc1ccc(N2CCCCCC2)cc1C#N` [Example 52, 4-Azepan-1-yl-phthalonitrile] it was 5.04 nM.
On the same count and under the same terms, in the case of `CCCN(CCC)c1cc(F)c(C#N)c(F)c1` [Example 53, 2,6-Difluoro-4-(dipropyl-amino)-benzonitrile] it was 4.06 nM.

Values taken from patent US20080045504A1, “Benzonitrile Derivatives to Treat Musculoskeletal Frailty” (PFIZER PRODUCTS INC., priority 2004, published 2008).
